Laboratory results published in PubChem BioAssay AID2060601 (Molecular Pharmacology Branch, DTP, NCI, 2025).

System: 874868-142-R-J2-PDC complex spheroids, growth % test/control
Experiment: Anticancer human tumor 874868-142-R-J2-PDC patient-derived head and neck squamous carcinoma cell line growth inhibition [CLK]
Conditions: for IC50: curve of first compound; for viability, T/C: stronger effect = lower value; active = viability on the fitted dose curve at most 10% of control; inactive = the rest
Method in brief: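 Multi-cell-type spheroids combined patient-derived tumor cells with HUVEC endothelial cells and human mesenchymal stem cells. Paired agents were dosed in half-log steps down from about clinical Cmax, or from 10 microM where Cmax was unknown.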

[1] = second compound 0.0316 µM, first compound 0.00316 µM
[2] = second compound 0.0316 µM, first compound 0.01 µM
[3] = second compound 0.0316 µM, first compound 0.0316 µM
[4] = second compound 0.0316 µM, first compound 0.1 µM
[5] = second compound 0.0316 µM, first compound 0.316 µM
[6] = second compound 0.0316 µM, first compound 1 µM
[7] = second compound 0.1 µM, first compound 0.00316 µM
[8] = second compound 0.1 µM, first compound 0.01 µM
[9] = second compound 0.1 µM, first compound 0.0316 µM
[10] = second compound 0.1 µM, first compound 0.1 µM
[11] = second compound 0.1 µM, first compound 0.316 µM
[12] = second compound 0.1 µM, first compound 1 µM
[13] = second compound 0.316 µM, first compound 0.00316 µM
[14] = second compound 0.316 µM, first compound 0.01 µM
[15] = second compound 0.316 µM, first compound 0.0316 µM
[16] = second compound 0.316 µM, first compound 0.1 µM
[17] = second compound 0.316 µM, first compound 0.316 µM
[18] = second compound 0.316 µM, first compound 1 µM
[19] = second compound 1 µM, first compound 0.00316 µM
[20] = second compound 1 µM, first compound 0.01 µM
[21] = second compound 1 µM, first compound 0.0316 µM
[22] = second compound 1 µM, first compound 0.1 µM
[23] = second compound 1 µM, first compound 0.316 µM
[24] = second compound 1 µM, first compound 1 µM
[25] = second compound 3.16 µM, first compound 0.00316 µM
[26] = second compound 3.16 µM, first compound 0.01 µM
[27] = second compound 3.16 µM, first compound 0.0316 µM
[28] = second compound 3.16 µM, first compound 0.1 µM
[29] = second compound 3.16 µM, first compound 0.316 µM
[30] = second compound 3.16 µM, first compound 1 µM
[31] = second compound 10 µM, first compound 0.00316 µM
[32] = second compound 10 µM, first compound 0.01 µM
[33] = second compound 10 µM, first compound 0.0316 µM
[34] = second compound 10 µM, first compound 0.1 µM
[35] = second compound 10 µM, first compound 0.316 µM
[36] = second compound 10 µM, first compound 1 µM
[37] = second compound 0.0316 µM, first compound 3.16 µM
[38] = second compound 0.0316 µM, first compound 10 µM
[39] = second compound 0.1 µM, first compound 3.16 µM
[40] = second compound 0.1 µM, first compound 10 µM
[41] = second compound 0.316 µM, first compound 3.16 µM
[42] = second compound 0.316 µM, first compound 10 µM
[43] = second compound 1 µM, first compound 3.16 µM
[44] = second compound 1 µM, first compound 10 µM
[45] = second compound 3.16 µM, first compound 3.16 µM
[46] = second compound 3.16 µM, first compound 10 µM
[47] = second compound 10 µM, first compound 3.16 µM
[48] = second compound 10 µM, first compound 10 µM
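Also: spheroids exposed to the compounds for 7 days.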
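For viability, T/C in this document: 100% = DMSO vehicle control viability.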

CCc1c2c(nc3ccc(O)cc13)-c1cc3c(c(=O)n1C2)COC(=O)[C@]3(O)CC + CNC(=O)c1ccc(Nc2nc(OC3CCCC3)c3c(-c4ccc5nc(C)oc5c4)c[nH]c3n2)c(OC)c1
11.8 nM: IC50 (second compound 0.0316 µM)
inactive: viability, T/C [1] 63.6% | viability, T/C [2] 44% | viability, T/C [3] 47.1% | viability, T/C [4] 28% | viability, T/C [5] 11.6% | viability, T/C [7] 50.4% | viability, T/C [8] 47.8% | viability, T/C [9] 35.7% | viability, T/C [10] 28.2% | viability, T/C [11] 16.6% | viability, T/C [13] 42.9% | viability, T/C [14] 37.9% | viability, T/C [15] 34.4% | viability, T/C [16] 19.6% | viability, T/C [17] 11.3% | viability, T/C [19] 31% | viability, T/C [20] 26.8% | viability, T/C [21] 15.1% | viability, T/C [22] 11.6% | viability, T/C [25] 24.7% | viability, T/C [26] 20.7% | viability, T/C [27] 15.3% | viability, T/C [28] 12.4% | viability, T/C [31] 28.8% | viability, T/C [32] 21.6% | viability, T/C [33] 14% | viability, T/C [34] 11.2%
active: viability, T/C [6] 2.44% | viability, T/C [12] 2.97% | viability, T/C [18] 4.87% | viability, T/C [23] 7.96% | viability, T/C [24] 1.98% | viability, T/C [29] 12.8% | viability, T/C [30] 4.03% | viability, T/C [35] 9.57% | viability, T/C [36] 9.34%
3.98 nM: IC50 (second compound 0.1 µM)
< 3.16 nM: IC50 (second compound 0.316 µM) | IC50 (second compound 1 µM) | IC50 (second compound 3.16 µM) | IC50 (second compound 10 µM)

Cn1ncnc1[C@H]1c2n[nH]c(=O)c3cc(F)cc(c23)N[C@@H]1c1ccc(F)cc1 + CNC(=O)c1ccc(Nc2nc(OC3CCCC3)c3c(-c4ccc5nc(C)oc5c4)c[nH]c3n2)c(OC)c1
> 100 nM: IC50 (second compound 0.0316 µM) | IC50 (second compound 0.1 µM) | IC50 (second compound 0.316 µM)
< 0.316 nM: IC50 (second compound 1 µM) | IC50 (second compound 3.16 µM) | IC50 (second compound 10 µM)
inactive: viability, T/C (second compound 0.0316 µM, first compound 0.000316 µM) 97.6% | viability, T/C (second compound 0.0316 µM, first compound 0.001 µM) 92.7% | viability, T/C [1] 102% | viability, T/C [2] 94.6% | viability, T/C [3] 85.1% | viability, T/C [4] 73.7% | viability, T/C (second compound 0.1 µM, first compound 0.000316 µM) 85% | viability, T/C (second compound 0.1 µM, first compound 0.001 µM) 68.8% | viability, T/C [7] 90.1% | viability, T/C [8] 79.2% | viability, T/C [9] 73.5% | viability, T/C [10] 66.6% | viability, T/C (second compound 0.316 µM, first compound 0.000316 µM) 61.4% | viability, T/C (second compound 0.316 µM, first compound 0.001 µM) 54.3% | viability, T/C [13] 51.5% | viability, T/C [14] 56.3% | viability, T/C [15] 59.7% | viability, T/C [16] 46.3% | viability, T/C (second compound 1 µM, first compound 0.000316 µM) 42.7% | viability, T/C (second compound 1 µM, first compound 0.001 µM) 50.8% | viability, T/C [19] 40.6% | viability, T/C [20] 36.9% | viability, T/C [21] 40.8% | viability, T/C [22] 40.7% | viability, T/C (second compound 3.16 µM, first compound 0.000316 µM) 44.5% | viability, T/C (second compound 3.16 µM, first compound 0.001 µM) 36.2% | viability, T/C [25] 39.2% | viability, T/C [26] 39% | viability, T/C [27] 44% | viability, T/C [28] 34% | viability, T/C (second compound 10 µM, first compound 0.000316 µM) 44% | viability, T/C (second compound 10 µM, first compound 0.001 µM) 40.5% | viability, T/C [31] 39.4% | viability, T/C [32] 39.5% | viability, T/C [33] 47.6% | viability, T/C [34] 31%

Nc1ccn(C2OC(CO)C(O)C2(F)F)c(=O)n1 (stereo not given) + CNC(=O)c1ccc(Nc2nc(OC3CCCC3)c3c(-c4ccc5nc(C)oc5c4)c[nH]c3n2)c(OC)c1
162 nM: IC50 (second compound 0.316 µM)
646 nM: IC50 (second compound 0.0316 µM)
< 31.6 nM: IC50 (second compound 1 µM) | IC50 (second compound 3.16 µM) | IC50 (second compound 10 µM)
518 nM: IC50 (second compound 0.1 µM)
inactive: viability, T/C [3] 108% | viability, T/C [4] 80.2% | viability, T/C [5] 56.3% | viability, T/C [6] 46.7% | viability, T/C [37] 41.6% | viability, T/C [38] 43.5% | viability, T/C [9] 80.6% | viability, T/C [10] 97.9% | viability, T/C [11] 57.8% | viability, T/C [12] 42.3% | viability, T/C [39] 42.9% | viability, T/C [40] 33.8% | viability, T/C [15] 56.4% | viability, T/C [16] 53.7% | viability, T/C [17] 48% | viability, T/C [18] 35.3% | viability, T/C [41] 35% | viability, T/C [42] 22.3% | viability, T/C [21] 42.9% | viability, T/C [22] 37.5% | viability, T/C [23] 33.6% | viability, T/C [24] 23.1% | viability, T/C [43] 26.2% | viability, T/C [44] 18% | viability, T/C [27] 40% | viability, T/C [28] 42.1% | viability, T/C [29] 30.3% | viability, T/C [30] 23.8% | viability, T/C [45] 22.7% | viability, T/C [46] 16.5% | viability, T/C [33] 39.2% | viability, T/C [34] 36.8% | viability, T/C [35] 33.7% | viability, T/C [36] 25.5% | viability, T/C [47] 19.4% | viability, T/C [48] 23.1%

O=C(c1cc(Cc2n[nH]c(=O)c3ccccc23)ccc1F)N1CCN(C(=O)C2CC2)CC1 + CNC(=O)c1ccc(Nc2nc(OC3CCCC3)c3c(-c4ccc5nc(C)oc5c4)c[nH]c3n2)c(OC)c1
> 10000 nM: IC50 (second compound 0.0316 µM) | IC50 (second compound 0.1 µM) | IC50 (second compound 0.316 µM)
inactive: viability, T/C [3] 86.5% | viability, T/C [4] 90.7% | viability, T/C [5] 115% | viability, T/C [6] 81.4% | viability, T/C [37] 91.8% | viability, T/C [38] 75.6% | viability, T/C [9] 98.9% | viability, T/C [10] 76.5% | viability, T/C [11] 93.7% | viability, T/C [12] 87% | viability, T/C [39] 70.7% | viability, T/C [40] 73.4% | viability, T/C [15] 54% | viability, T/C [16] 54.5% | viability, T/C [17] 60.8% | viability, T/C [18] 45.9% | viability, T/C [41] 61% | viability, T/C [42] 55.6% | viability, T/C [21] 42.2% | viability, T/C [22] 40.9% | viability, T/C [23] 42.3% | viability, T/C [24] 41.1% | viability, T/C [43] 39.7% | viability, T/C [44] 41.4% | viability, T/C [27] 41.4% | viability, T/C [28] 48.8% | viability, T/C [29] 48.8% | viability, T/C [30] 41% | viability, T/C [45] 50.3% | viability, T/C [46] 46.2% | viability, T/C [33] 38.3% | viability, T/C [34] 48.4% | viability, T/C [35] 42.7% | viability, T/C [36] 41.8% | viability, T/C [47] 43.3% | viability, T/C [48] 42.2%
< 31.6 nM: IC50 (second compound 1 µM) | IC50 (second compound 3.16 µM) | IC50 (second compound 10 µM)

O=c1[nH]cc(F)c(=O)[nH]1 + CNC(=O)c1ccc(Nc2nc(OC3CCCC3)c3c(-c4ccc5nc(C)oc5c4)c[nH]c3n2)c(OC)c1
< 31.6 nM: IC50 (second compound 1 µM) | IC50 (second compound 3.16 µM) | IC50 (second compound 10 µM)
461 nM: IC50 (second compound 0.316 µM)
inactive: viability, T/C [3] 81.8% | viability, T/C [4] 86% | viability, T/C [5] 71.7% | viability, T/C [6] 61.1% | viability, T/C [37] 54.7% | viability, T/C [38] 50.7% | viability, T/C [9] 74% | viability, T/C [10] 68.9% | viability, T/C [11] 75.8% | viability, T/C [12] 56.4% | viability, T/C [39] 50.2% | viability, T/C [40] 41.5% | viability, T/C [15] 54% | viability, T/C [16] 59.2% | viability, T/C [17] 55.9% | viability, T/C [18] 34.9% | viability, T/C [41] 39.4% | viability, T/C [42] 39.2% | viability, T/C [21] 43.5% | viability, T/C [22] 48.6% | viability, T/C [23] 40.1% | viability, T/C [24] 29.4% | viability, T/C [43] 30.1% | viability, T/C [44] 26% | viability, T/C [27] 34.9% | viability, T/C [28] 39.7% | viability, T/C [29] 29% | viability, T/C [30] 28.4% | viability, T/C [45] 28.7% | viability, T/C [46] 31.9% | viability, T/C [33] 40.2% | viability, T/C [34] 46% | viability, T/C [35] 35.9% | viability, T/C [36] 23.4% | viability, T/C [47] 30.8% | viability, T/C [48] 23.2%
2010 nM: IC50 (second compound 0.1 µM)
> 10000 nM: IC50 (second compound 0.0316 µM)
